Strand notation (5' to 3'): a small letter for the sugar, then the base; units joined by * are phosphorothioate-linked, units joined directly phosphodiester-linked; [ ] holds rarer units or linkages, { } end groups; capitals alone tell only the bases. e = 2'-O-(2-methoxyethyl) (MOE); [5mC] = 5-methylcytosine; d = 2'-deoxy (DNA)
What was measured:
Human B7-1 mRNA = Human B7-1 mRNA expression in COS-7 cells, screened as in Example 4; assay type: cell-based
human B7.2 mRNA = assay: Human B7.2 mRNA levels in THP-1 cells by quantitative real-time PCR (Example 27); assay type: cell-based; set-up: concentration or dose not given beside the values
From the text: In accordance with the present invention, an additional series of antisense compounds were designed to target different regions of the human B7.2 RNA, using published sequences (GenBank accession number U04343.1, incorporated herein as SEQ ID NO: 295, GenBank accession number BC040261.1, incorporated herein as SEQ ID NO: 296 and GenBank accession number NT—005543.12, a portion of which is incorporated herein as SEQ ID NO: 297). “Target site” indicates the first (5′-most) nucleotide number on the particular target sequence to which the compound binds. All compounds in Table 25 are chimeric oligonucleotides (“gapmers”) 20 nucleotides in length, composed of a central “gap” region consisting of ten 2′-deoxynucleotides, which is flanked on both sides (5′ and 3′ directions) by five-nucleotide “wings”. The wings are composed of 2′-methoxyethyl (2′-MOE)nucleotides. The internucleoside (backbone) linkages are phosphorothioate (P═S) throughout the oligonucleotide. All cytidine residues are 5-methylcytidines. The compounds were analyzed for their effect on human B7.2 mRNA levels in THP-1 cells by quantitative real-time PCR as described in other examples herein. Data are averages from three experiments. If present, “N.D.” indicates “no data”.

Substance	% mRNA EXPRESSION (Human B7-1 mRNA; human B7-1 mRNA, Table 7)	% mRNA INHIBITION (Human B7-1 mRNA; human B7-1 mRNA, Table 7)	% INHIB (inhibition of human B7.2 mRNA levels) (human B7.2 mRNA)	also measured
13805 (antisense C^{S}C^{S}T^{S}G^{S}C^{S}C^{S}T^{S}C^{S}C^{S}G^{S}T^{S}G^{S}T^{S}G^{S}T^{S}G^{S}G^{S}C^{S}C^{S}C; as printed in the source, key not given here) [compound 13805]	46%	54%	–	–
22313 (eA*eG*eA*e[5mC]*eT*d[5mC]*d[5mC]*dA*d[5mC]*dT*dT*d[5mC]*dT*dG*dA*eG*eA*eT*eG*eT; antisense) [compound 22313]	75%	25%	–	–
22314 (eT*eG*eA*eA*eG*dA*dA*dA*dA*dA*dT*dT*d[5mC]*d[5mC]*dA*e[5mC]*eT*eT*eT*eT; antisense) [compound 22314]	69%	31%	–	–
22315 (eT*eT*eT*eA*eG*dT*dT*dT*d[5mC]*dA*d[5mC]*dA*dG*d[5mC]*dT*eT*eG*e[5mC]*eT*eG) [compound 22315]	49%	–	–	–
22318 (eG*eT*eG*eA*eA*dA*dG*d[5mC]*d[5mC]*dA*dA*d[5mC]*dA*dA*dT*eT*eT*eG*eG*eA; antisense) [compound 22318]	63%	37%	–	–
22319 (e[5mC]*eA*eT*eG*eG*d[5mC]*dT*dT*d[5mC]*dA*dG*dA*dT*dG*d[5mC]*eT*eT*eA*eG*eG; antisense) [compound 22319]	68%	32%	–	–
22321 (eG*eA*e[5mC]*e[5mC]*eA*dG*d[5mC]*d[5mC]*dA*dG*d[5mC]*dA*d[5mC]*d[5mC]*dA*eA*eG*eA*eG*e[5mC]; antisense) [compound 22321]	57%	43%	–	–
22326 (antisense eG*eT*eA*eT*eG*dT*dG*d[5mC]*d[5mC]*d[5mC]*dT*d[5mC]*dG*dT*d[5mC]*eA*eG*eA*eT*eG) [compound 22326]	62%	38%	–	–
22328 (antisense eG*eG*eA*eA*eG*dT*d[5mC]*dA*dG*d[5mC]*dT*dT*dT*dG*dA*e[5mC]*eT*eG*eA*eT) [compound 22328]	64%	36%	–	–
22329 (antisense e[5mC]*e[5mC]*eT*e[5mC]*e[5mC]*dA*dG*dA*dG*dG*dT*dT*dG*dA*dG*e[5mC]*eA*eA*eA*eT) [compound 22329]	59%	41%	–	–
22330 (antisense e[5mC]*e[5mC]*eA*eA*e[5mC]*d[5mC]*dA*dG*dG*dA*dG*dA*dG*dG*dT*eG*eA*eG*eG*e[5mC]) [compound 22330]	54%	46%	–	–
22331 (antisense eG*eA*eA*eG*e[5mC]*dT*dG*dT*dG*dG*dT*dT*dG*dG*dT*eT*eG*eT*e[5mC]*eA) [compound 22331]	62%	38%	–	–
22332 (antisense eT*eT*eG*eA*eA*dG*dG*dT*d[5mC]*dT*dG*dA*dT*dT*d[5mC]*eA*e[5mC]*eT*e[5mC]*eT) [compound 22332]	67%	33%	–	–
22333 (antisense eA*eA*eG*eG*eT*dA*dA*dT*dG*dG*d[5mC]*d[5mC]*d[5mC]*dA*dG*eG*eA*eT*eG*eG) [compound 22333]	73%	27%	–	–
22336 (antisense eA*eG*e[5mC]*e[5mC]*e[5mC]*d[5mC]*dT*dT*dG*d[5mC]*dT*dT*d[5mC]*dT*dG*e[5mC]*eG*eG*eA*e[5mC]) [compound 22336]	55%	45%	–	–
22339 (antisense eG*eT*eA*eA*eA*dA*d[5mC]*dA*dG*d[5mC]*dT*dT*dA*dA*dA*eT*eT*eT*eG*eT) [compound 22339]	69%	31%	–	–
22340 (antisense eA*eG*eA*eA*eG*dA*dG*dG*dT*dT*dA*d[5mC]*dA*dT*dT*eA*eA*eG*e[5mC]*eA) [compound 22340]	71%	29%	–	–

Substance	% mRNA EXPRESSION (Human B7-1 mRNA; human B7-1 mRNA, Table 7)	% mRNA INHIBITION (Human B7-1 mRNA; human B7-1 mRNA, Table 7)	% INHIB (inhibition of human B7.2 mRNA levels) (human B7.2 mRNA)	also measured
22341 (antisense eA*eG*eA*eT*eA*dA*dT*dG*dA*dA*dT*dT*dG*dG*d[5mC]*eT*eG*eA*e[5mC]*eA) [compound 22341]	59%	41%	–	–
24733 (antisense eG*e[5mC]*eG*eT*e[5mC]*dA*dT*d[5mC]*dA*dT*d[5mC]*d[5mC]*dG*d[5mC]*dA*e[5mC]*e[5mC]*eA*eT*e[5mC]) [compound 24733]	–	–	–	% mRNA EXPRESSION (Human B7-1 mRNA; 10 nM, COS-7, Table 8): 90%; % mRNA INHIBITION (Human B7-1 mRNA; 10 nM, COS-7, Table 8): 10%; % mRNA EXPRESSION (Human B7-1 mRNA; 30 nM, COS-7, Table 8): 91%; % mRNA INHIBITION (Human B7-1 mRNA; 30 nM, COS-7, Table 8): 9%; % mRNA EXPRESSION (Human B7-1 mRNA; 100 nM, COS-7, Table 8): 90%; % mRNA INHIBITION (Human B7-1 mRNA; 100 nM, COS-7, Table 8): 10%; % mRNA EXPRESSION (Human B7-1 mRNA; 300 nM, COS-7, Table 8): 80%; % mRNA INHIBITION (Human B7-1 mRNA; 300 nM, COS-7, Table 8): 20%
24734 (antisense e[5mC]*eG*eT*eT*eG*d[5mC]*dT*dT*dG*dT*dG*d[5mC]*d[5mC]*dG*dA*e[5mC]*eA*eG*eT*eG) [compound 24734]	–	–	–	% mRNA EXPRESSION (Human B7-1 mRNA; 10 nM, COS-7, Table 8): 94%; % mRNA INHIBITION (Human B7-1 mRNA; 10 nM, COS-7, Table 8): 6%; % mRNA EXPRESSION (Human B7-1 mRNA; 30 nM, COS-7, Table 8): 96%; % mRNA INHIBITION (Human B7-1 mRNA; 30 nM, COS-7, Table 8): 4%; % mRNA EXPRESSION (Human B7-1 mRNA; 100 nM, COS-7, Table 8): 94%; % mRNA INHIBITION (Human B7-1 mRNA; 100 nM, COS-7, Table 8): 6%; % mRNA EXPRESSION (Human B7-1 mRNA; 300 nM, COS-7, Table 8): 84%; % mRNA INHIBITION (Human B7-1 mRNA; 300 nM, COS-7, Table 8): 16%
24735 (antisense eG*e[5mC]*eT*e[5mC]*eA*d[5mC]*dG*dA*dA*dG*dA*dA*d[5mC]*dA*d[5mC]*e[5mC]*eT*eT*e[5mC]*e[5mC]) [compound 24735]	–	–	–	% mRNA EXPRESSION (Human B7-1 mRNA; 10 nM, COS-7, Table 8): 100%; % mRNA EXPRESSION (Human B7-1 mRNA; 30 nM, COS-7, Table 8): 95%; % mRNA INHIBITION (Human B7-1 mRNA; 30 nM, COS-7, Table 8): 5%; % mRNA EXPRESSION (Human B7-1 mRNA; 100 nM, COS-7, Table 8): 81%; % mRNA INHIBITION (Human B7-1 mRNA; 100 nM, COS-7, Table 8): 19%; % mRNA EXPRESSION (Human B7-1 mRNA; 300 nM, COS-7, Table 8): 75%; % mRNA INHIBITION (Human B7-1 mRNA; 300 nM, COS-7, Table 8): 25%
323624 (antisense eG*eT*eT*eA*e[5mC]*dT*d[5mC]*dA*dG*dT*d[5mC]*d[5mC]*d[5mC]*dA*dT*eA*eG*eT*eG*e[5mC]) [compound 323624]	–	–	59%	–
323625 (antisense e[5mC]*eA*eA*eA*eG*dA*dG*dA*dA*dT*dG*dT*dT*dA*d[5mC]*eT*e[5mC]*eA*eG*eT) [compound 323625]	–	–	21%	–
323626 (antisense e[5mC]*e[5mC]*eA*eT*e[5mC]*dA*d[5mC]*dA*dA*dA*dG*dA*dG*dA*dA*eT*eG*eT*eT*eA) [compound 323626]	–	–	32%	–
323627 (antisense eG*eG*eA*eA*eG*dG*d[5mC]*d[5mC]*dA*dT*d[5mC]*dA*d[5mC]*dA*dA*eA*eG*eA*eG*eA) [compound 323627]	–	–	54%	–
323628 (antisense eG*eA*eG*e[5mC]*eA*dG*dG*dA*dA*dG*dG*d[5mC]*d[5mC]*dA*dT*e[5mC]*eA*e[5mC]*eA*eA) [compound 323628]	–	–	44%	–
323629 (antisense e[5mC]*e[5mC]*eA*eG*eA*dG*dA*dG*d[5mC]*dA*dG*dG*dA*dA*dG*eG*e[5mC]*e[5mC]*eA*eT) [compound 323629]	–	–	36%	–
323630 (antisense eA*eA*eA*eT*eA*dA*dG*d[5mC]*dT*dT*dG*dA*dA*dT*d[5mC]*eT*eT*e[5mC]*eA*eG) [compound 323630]	–	–	22%	–
323631 (antisense eA*eG*eT*e[5mC]*eT*d[5mC]*dA*dT*dT*dG*dA*dA*dA*dT*dA*eA*eG*e[5mC]*eT*eT) [compound 323631]	–	–	56%	–
323632 (antisense eA*eG*eG*eT*e[5mC]*dT*dG*d[5mC]*dA*dG*dT*d[5mC]*dT*d[5mC]*dA*eT*eT*eG*eA*eA) [compound 323632]	–	–	41%	–
323633 (antisense e[5mC]*eT*eA*e[5mC]*eT*dA*dG*d[5mC]*dT*d[5mC]*dA*d[5mC]*dT*d[5mC]*dA*eG*eG*e[5mC]*eT*eT) [compound 323633]	–	–	50%	–
323634 (antisense eA*eA*eA*eT*eA*d[5mC]*dT*dA*d[5mC]*dT*dA*dG*d[5mC]*dT*d[5mC]*eA*e[5mC]*eT*e[5mC]*eA) [compound 323634]	–	–	30%	–
323635 (antisense e[5mC]*eT*eG*e[5mC]*e[5mC]*dA*dA*dA*dA*dT*dA*d[5mC]*dT*dA*d[5mC]*eT*eA*eG*e[5mC]*eT) [compound 323635]	–	–	24%	–
323636 (antisense eT*eT*e[5mC]*eA*eG*dA*dA*d[5mC]*d[5mC]*dA*dA*dG*dT*dT*dT*eT*e[5mC]*e[5mC]*eT*eG) [compound 323636]	–	–	23%	–
